The text below walks through data of ChEMBL document CHEMBL5518244, “Design, Synthesis, and Biological Evaluation of a Novel NIK Inhibitor with Anti-Inflammatory and Hepatoprotective Effects for Sepsis Treatment” (J Med Chem, 2024).

Structures are written as SMILES. Active and inactive are the calls of the source. The calls are words filed in the database; no cut-off is given here.

Test [1] has as its target T1, Mitogen-activated protein kinase kinase kinase 14 (Homo sapiens, UniProt Q99558). Nature of the test: Inhibition of NIK (unknown origin) incubated 30 to 60 mins by ADP-Glo Kinase.
Target sequence in this assay (Q99558 whole entry): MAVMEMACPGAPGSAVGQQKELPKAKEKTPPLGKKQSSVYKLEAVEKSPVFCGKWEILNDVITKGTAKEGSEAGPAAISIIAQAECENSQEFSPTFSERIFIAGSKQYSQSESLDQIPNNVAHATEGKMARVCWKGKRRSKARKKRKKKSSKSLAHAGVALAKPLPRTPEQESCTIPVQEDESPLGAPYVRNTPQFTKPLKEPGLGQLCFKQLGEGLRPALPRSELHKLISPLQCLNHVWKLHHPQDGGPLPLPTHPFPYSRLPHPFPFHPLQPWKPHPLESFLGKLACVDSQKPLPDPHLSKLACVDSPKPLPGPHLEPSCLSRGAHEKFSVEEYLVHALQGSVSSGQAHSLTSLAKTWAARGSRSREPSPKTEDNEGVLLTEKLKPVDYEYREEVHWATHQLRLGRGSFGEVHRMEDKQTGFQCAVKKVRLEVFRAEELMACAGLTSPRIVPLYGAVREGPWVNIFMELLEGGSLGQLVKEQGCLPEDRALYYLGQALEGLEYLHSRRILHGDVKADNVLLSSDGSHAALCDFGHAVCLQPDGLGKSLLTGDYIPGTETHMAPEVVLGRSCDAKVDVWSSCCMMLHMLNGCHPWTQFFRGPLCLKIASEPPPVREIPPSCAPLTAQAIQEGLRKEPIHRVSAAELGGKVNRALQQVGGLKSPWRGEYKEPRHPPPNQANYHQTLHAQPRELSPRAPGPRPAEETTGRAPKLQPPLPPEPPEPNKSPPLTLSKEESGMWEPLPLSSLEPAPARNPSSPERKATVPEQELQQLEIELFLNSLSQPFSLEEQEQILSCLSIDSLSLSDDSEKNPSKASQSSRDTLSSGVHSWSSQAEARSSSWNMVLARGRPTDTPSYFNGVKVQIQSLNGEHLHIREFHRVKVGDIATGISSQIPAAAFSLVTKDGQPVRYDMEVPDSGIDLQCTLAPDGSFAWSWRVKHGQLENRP
In test [2] the target is T1, Mitogen-activated protein kinase kinase kinase 14. Nature of the test: Inhibition of NIK (unknown origin) expressed in COS-7 cells co-expressing NF-KappaB luciferase reporter assessed as suppression of luciferase reporter at 5 uM measured after 24 by beta-Gal activity assay. The test is classed as cell-based.
Target sequence in this assay (Q99558 whole entry, looked up): as the sequence (Q99558 whole entry) above
The next test relates to Macrophage. Briefly: Anti-inflammatory activity in mouse macrophages extracted from abdominal activity assessed as inhibition of LPS-induced nitric oxide production at 1 uM measured after 22 hrs by Griess reagent assay relative to control. Type of test: functional, cell-based.
In test [3] the target is T1, Mitogen-activated protein kinase kinase kinase 14. Briefly: Inhibition of NIK (unknown origin) expressed in COS-7 cells co-expressing NF-KappaB luciferase reporter assessed as suppression of luciferase reporter at 1 uM measured after 24 by beta-Gal activity assay. The test is classed as cell-based.
Target sequence in this assay (Q99558 whole entry, looked up): as the sequence (Q99558 whole entry) above
The target is the same in test [4]. Nature of the test: Inhibition of NIK (unknown origin) expressed in COS-7 cells co-expressing NF-KappaB luciferase reporter assessed as suppression of luciferase reporter measured after 24 by beta-Gal activity assay. Type of test: cell-based.
Target sequence in this assay (Q99558 whole entry): as above

In test [1], `CC(O)(C#Cc1cc2n(n1)CCCN2c1cccc(Nc2ccccc2)n1)c1nccs1` (stereo not given) registered a half-maximal inhibitory concentration (IC50) above 500 nM.

Regarding `CC(C)(O)C#Cc1cc2n(n1)CCCN2c1ccnc(Nc2ccc3c(c2)OCO3)n1`, half-maximal inhibition in test [1] (IC50) was put at 22.7 nM.

In the case of `CC(O)(C#Cc1cc2n(n1)CCCN2c1ccnc(Nc2ccccn2)n1)c1nccs1` (stereo not given), in test [1], the IC50 is 5.93 nM.

Regarding `CC(O)(C#Cc1cc2n(n1)CCCN2c1ccnc(Nc2cccc(N3CCOCC3)c2)n1)c1nccs1` (stereo not given), the IC50 in test [1] is 11.5 nM.

In the case of `COc1cc(Nc2nccc(N3CCCn4nc(C#C[C@](C)(O)c5nccs5)cc43)n2)cc(OC)c1`, the IC50 in test [1] is 89.4 nM.

Turning to `CNc1nccc(N2CCCn3nc(C#CC(C)(O)c4nccs4)cc32)n1` (stereo not given), the IC50 in test [1] turned out to be 11.2 nM.

`CC(O)(C#Cc1cc2n(n1)CCCN2c1ccnc(Nc2cc(C#N)ccn2)n1)c1nccs1` (stereo not given) had an IC50 in test [1] of 6.96 nM.

As to `CC(O)(C#Cc1cc2n(n1)CCCN2c1ccnc(Nc2cccc(N3CCOCC3)n2)n1)c1nccs1` (stereo not given), the inhibition result in test [2] and in test [3] was “Active” each time. Also, the results for the half-inhibitory concentration (IC50) (in the test with Macrophage; in test [1]; in test [4]) were 17200 nM, 9.8 nM and 2430 nM, respectively.

In the case of `OC1(C#Cc2cc3n(n2)CCCN3c2ccnc(Nc3ccc4c(c3)OCO4)n2)CCn2ccnc21` (stereo not given), the IC50 in test [1] stood at 4.33 nM.

In test [1], `Cn1cc(Nc2nccc(N3CCCn4nc(C#CC(C)(O)c5nccs5)cc43)n2)cn1` (stereo not given) showed an IC50 of 5.35 nM.

Consider `CC(O)(C#Cc1cc2n(n1)CCCN2c1ccnc(Nc2cc(Cl)ccn2)n1)c1nccs1` (stereo not given), for which, in test [1], the IC50 came to 6.99 nM.

Regarding `CN(C)c1cccc(Nc2nccc(N3CCCn4nc(C#CC(C)(O)c5nccs5)cc43)n2)n1` (stereo not given), half-maximal inhibition in test [1] (IC50) required 13 nM.

Turning to `CC(O)(C#Cc1cc2n(n1)CCCN2c1ccnc(Nc2ccc3c(c2)OCO3)n1)c1nccs1` (stereo not given), the inhibition entry in test [2] and in test [3] was “Active” in each case. In addition, the IC50 is 80300 nM in the test on Macrophage, 2.85 nM in test [1] and 1410 nM in test [4].

Molecule `CC(O)(C#Cc1cc2n(n1)CCCN2c1nc(N)ncc1Cl)c1nccs1` (stereo not given) showed a concentration for half-maximal inhibition (IC50) in test [1] of 70.8 nM.

`CC(O)(C#Cc1cc2n(n1)CCCN2c1ccnc(Nc2ccc(F)cn2)n1)c1nccs1` (stereo not given): half-maximal inhibition in test [1] (IC50) required 8.34 nM.

In turn, `CN(C)c1ccnc(Nc2nccc(N3CCCn4nc(C#CC(C)(O)c5nccs5)cc43)n2)c1` (stereo not given) registered an IC50 in test [1] of 208 nM.

As for `CN(C)c1cccc(Nc2nccc(N3CCCn4nc(C#CC(C)(O)c5nccs5)cc43)n2)c1` (stereo not given), the inhibition result in test [2] and in test [3] was “Active” each time. Besides, the IC50 with Macrophage amounted to 76800 nM; in test [1], 7.76 nM; in test [4] it was 2230 nM.

`CC(O)(C#Cc1cc2n(n1)CCCN2c1ccnc(Nc2cccc(N3CCCCC3)n2)n1)c1nccs1` (stereo not given): half-maximal inhibition in test [1] (IC50) was put at 24.6 nM.

Molecule `COc1cccnc1Nc1nccc(N2CCCn3nc(C#CC(C)(O)c4nccs4)cc32)n1` (stereo not given) had an IC50 in test [1] of 433 nM.

As to `CC(O)(C#Cc1cc2n(n1)CCCN2c1ccnc(Nc2cc(N3CCOCC3)ccn2)n1)c1nccs1` (stereo not given), the IC50 in test [1] was determined as 341 nM.

In test [1], `CC(O)(C#Cc1cc2n(n1)CCCN2c1ccnc(Nc2ccc3ccccc3n2)n1)c1nccs1` (stereo not given) showed an IC50 of 22.1 nM.

Regarding `OC1(C#Cc2cc3n(n2)CCCN3c2ccnc(Nc3ccc4c(c3)OCO4)n2)COC1`, in test [1], the IC50 was above 500 nM.

In test [1], `CC(O)(C#Cc1cc2n(n1)CCCN2c1ncnc2[nH]ccc12)c1nccs1` (stereo not given) had an IC50 above 500 nM.

For `CC(O)(C#Cc1cc2n(n1)CCCN2c1ccnc(Nc2cccc(C(F)(F)F)n2)n1)c1nccs1` (stereo not given), half-maximal inhibition in test [1] (IC50) was put at 16.6 nM.

In turn, `OC1(C#Cc2cc3n(n2)CCCN3c2ccnc(Nc3ccc4c(c3)OCO4)n2)CCCC1` returned an IC50 in test [1] of 14.1 nM.

Regarding `CC(C)Oc1cccc(Nc2nccc(N3CCCn4nc(C#CC(C)(O)c5nccs5)cc43)n2)n1` (stereo not given), in test [1], the IC50 was 16.5 nM.

The molecule `COc1cc(Nc2nccc(N3CCCn4nc(C#CC(C)(O)c5nccs5)cc43)n2)nc(OC)c1` (stereo not given) yielded an IC50 in test [1] of 10.7 nM.

Take `COCCN(C)c1cccc(Nc2nccc(N3CCCn4nc(C#CC(C)(O)c5nccs5)cc43)n2)n1` (stereo not given): in test [1], the midpoint of inhibition, the IC50, lay at 14.8 nM.

For the molecule `C(#Cc1cc2n(n1)CCCN2c1ccnc(Nc2ccc3c(c2)OCO3)n1)c1ccccn1`, the IC50 in test [1] was above 500 nM.

As for `Cc1cc(C(C)(O)C#Cc2cc3n(n2)CCCN3c2ccnc(Nc3ccc4c(c3)OCO4)n2)no1` (stereo not given), in test [1], the IC50 turned out to be 3.78 nM.

The molecule `CC(O)(C#Cc1cc2n(n1)CCCN2c1ccnc(Nc2ccc(F)cc2)n1)c1nccs1` (stereo not given) showed an IC50 in test [1] of 6.17 nM.

As to `CC(O)(C#Cc1cc2n(n1)CCCN2c1ccnc(Nc2ccc3c(c2)OC(F)(F)O3)n1)c1nccs1` (stereo not given), in test [1], the IC50 was found to be 15.4 nM.

Regarding `CC(O)(C#Cc1cc2n(n1)CCCN2c1ccnc(Nc2ccccc2)n1)c1nccs1` (stereo not given), the inhibition result in test [2] and in test [3] was “Active” each time. The IC50 in the test with Macrophage was determined as 59400 nM; in test [1], 4.76 nM; in test [4], 2170 nM.

Turning to `CC(C)n1cc(Nc2nccc(N3CCCn4nc(C#CC(C)(O)c5nccs5)cc43)n2)cn1` (stereo not given), 9.17 nM corresponded to half-maximal inhibition in test [1] (IC50).

Molecule `COc1ccc(Nc2nccc(N3CCCn4nc(C#CC(C)(O)c5nccs5)cc43)n2)nc1` (stereo not given) showed an IC50 in test [1] of 7.44 nM.

As to `COc1cccc(Nc2nccc(N3CCCn4nc(C#CC(C)(O)c5nccs5)cc43)n2)c1` (stereo not given), the inhibition entry in test [2] and in test [3] was “Active” each time. Besides, the results for the IC50 (in the test with Macrophage; in test [1]; in test [4]) were 45900 nM, 5.77 nM and 1330 nM, respectively.

The molecule `CC(O)(C#Cc1cc2n(n1)CCCN2c1ccnc(N)n1)c1nccs1` (stereo not given) came in with an IC50 in test [1] of 4.6 nM.

`CC(O)(C#Cc1cc2n(n1)CCCN2c1ccnc(Nc2ccccc2)c1)c1nccs1` (stereo not given) returned an IC50 in test [1] of 11.3 nM.

As to `CC(O)(C#Cc1cc2n(n1)CCCN2c1ccnc(NC2CCCCC2)n1)c1nccs1` (stereo not given), the IC50 in test [1] was 131 nM.

For the molecule `C(#CC1CC1)c1cc2n(n1)CCCN2c1ccnc(Nc2ccc3c(c2)OCO3)n1`, in test [1], the IC50 is above 500 nM.

In test [1], `CC(O)(C#Cc1cc2n(n1)CCCN2c1cc(Nc2ccc(F)cc2)ncn1)c1nccs1` (stereo not given) registered an IC50 of 58.4 nM.

Consider `CC(O)(C#Cc1cc2n(n1)CCCN2c1ccnc(Nc2ccc(Cl)cc2)n1)c1nccs1` (stereo not given), for which, in test [1], the IC50 turned out to be 6.46 nM.

In turn, `CC(O)(C#Cc1cc2n(n1)CCCN2c1ccnc(Nc2ccncn2)n1)c1nccs1` (stereo not given) registered an IC50 in test [1] of 11.3 nM.

In the case of `COCCNc1nccc(N2CCCn3nc(C#CC(C)(O)c4nccs4)cc32)n1` (stereo not given), the IC50 in test [1] was found to be 34.2 nM.

The molecule `CC(O)(C#Cc1cc2n(n1)CCCN2c1ccnc(Nc2ccc3c(c2)OCO3)n1)c1ccccc1` (stereo not given) came in with an IC50 in test [1] of 29.1 nM.

In test [1], `COc1ccnc(Nc2nccc(N3CCCn4nc(C#CC(C)(O)c5nccs5)cc43)n2)c1` (stereo not given) came in with an IC50 of 5.1 nM.

Regarding `CC(O)(C#Cc1cc2n(n1)CCCN2c1ncnc(Nc2ccc(Cl)cc2)n1)c1nccs1` (stereo not given), in test [1], the half-maximal inhibitory concentration (IC50) was found to be 4.73 nM.

In turn, `COc1cccc(Nc2nccc(N3CCCn4nc(C#CC(C)(O)c5nccs5)cc43)n2)n1` (stereo not given) registered an IC50 in test [1] of 4.43 nM.

On to `CC(O)(C#Cc1ccc2c(c1)N(c1nc(N)ncc1Cl)CC2)c1nccs1` (stereo not given), for which the figures for the IC50 (in the test with Macrophage; in test [1]; in test [4]) were 58600 nM, 2.68 nM and 910 nM, respectively.

In the case of `CC(O)(C#Cc1cc2n(n1)CCCN2c1nc(N)ncc1F)c1nccs1` (stereo not given), in test [1], the IC50 is above 500 nM.

In test [1], `Cn1ccc(Nc2nccc(N3CCCn4nc(C#CC(C)(O)c5nccs5)cc43)n2)n1` (stereo not given) displayed an IC50 of 9.36 nM.

Regarding `COc1cc(Nc2nccc(N3CCCn4nc(C#CC(C)(O)c5nccs5)cc43)n2)cc(OC)c1` (stereo not given), in test [1], the IC50 stood at 6.74 nM.

Take `CC(C)Nc1nccc(N2CCCn3nc(C#CC(C)(O)c4nccs4)cc32)n1` (stereo not given): inhibition in test [1] was half-maximal at 14.3 nM (IC50).
